How the values were obtained:
Assay type in all cases: in vivo
Diabrotica balteata = Diabrotica balteata spray test; conditions: 168 h, wheat seeds, larvae, after 7 days, read-out: activity (efficacy: 100% means all seedlings have grown up like in the untreated, uninfected control); for pest or weed control at 32 µg/disc, 100 g/ha: application rate 100 g/ha (=32 μg/well); for pest or weed control at 160 µg/disc, 500 g/ha: application rate 500 g/ha (=160 μg/well)
Description: Diabrotica balteata—Spray Test Solvent: 78.0 parts by weight of acetone • • 1.5 parts by weight of dimethylformamide Emulsifier: alkylarylpolyglycol ether
(§1) To produce a suitable preparation of active compound, 1 part by weight of active compound is mixed with the stated amount of solvent, and the concentrate is diluted with water, containing an emulsifier concentration of 1000 ppm, to the desired concentration. Further test concentrations are prepared by dilution with emulsifier containing water.
Soaked wheat seeds (Triticum aestivum) are placed in a multiple well plate filled with agar and some water and are incubated for 1 day to germinate (5 seeds per well). The germinated wheat seeds are sprayed with a test solution containing the desired concentration of the active ingredient. Afterwards each unit is infected with 10-20 larvae of the banded cucumber beetle (Diabrotica balteata).
After 7 days efficacy in % is determined. 100% means all the seedlings have grown up like in the untreated, uninfected control; 0% means none of the seedlings have grown.

Spodoptera frugiperda = Spodoptera frugiperda spray test; conditions: in Zea mays, 168 h, read-out: activity (mortality)
Description: Spodoptera Fruaiperda—Spray Test
Solvent: 78.0 parts by weight acetone • 1.5 parts by weight dimethylformamide Emulsifier: alkylarylpolyglycol ether
as §1, with “solvents” for “solvent,”, “and” for “and the concentrate”
Maize (Zea mays) leaf sections are sprayed with a preparation of the active ingredient of the desired concentration. Once dry, the leaf sections are infested with fall armyworm larvae (Spodoptera frugiperda).
After 7 days mortality in % is determined. 100% means all caterpillars have been killed and 0% means none of the caterpillars have been killed.

Rhipicephalus microplus [1] = assay: Rhipicephalus (Boophilus) microplus injection test (BOOPMI Inj); conditions: 168 h, injection into adult engorged female ticks, egg deposition after 7 days, read-out: activity (efficacy: 100% means all eggs are infertile); for pest or weed control at 0.004 mg: application rate 4 μg/tick; for pest or weed control at 0.02 mg: application rate 20 μg/tick
Description: Rhipicephalus (Boophilus) Microplus—Injection Test (BOOPMI Inj)
Solvent: dimethyl sulfoxide
To produce a suitable preparation of active compound, 10 mg of active compound are dissolved in 0.5 mL solvent, and the concentrate is diluted with solvent to the desired concentration.
Five adult engorged female ticks (Rhipicephalus microplus) are injected with 1 μL compound solution into the abdomen. The ticks are transferred into replica plates and incubated in a climate chamber.
After 7 days egg deposition of fertile eggs is monitored. Eggs where fertility is not visible are stored in a climate chamber till hatching after about 42 days. An efficacy of 100% means all eggs are infertile; 0% means all eggs are fertile.

Rhipicephalus microplus [2] = assay: Rhipicephalus (Boophilus) microplus in-vitro contact test, larval cattle tick, strain Parkhurst (BOOPMI Cont); conditions: application rate 5 μg/cm^2 (=500 g/ha), tick larvae, after 48 hours, read-out: activity (efficacy: 100% means all larvae are dead or moribund)
Description: Rhipicephalus (Boophilus) Microplus—In-Vitro Contact Tests Larval Cattle Tick (Strain Parkhurst, Resistant Against Synthetic Pyrethroids) (BOOPMI Cont)
9 mg compound is solved in 1 mL acetone and diluted with acetone to the desired concentration. 250 μL of the test solution is filled in 25 mL glass test tubes and homogeneously distributed on the inner walls by rotation and tilting on a shaking device (2 h at 30 rpm). With a compound concentration of 900 ppm, an inner surface of 44.7 cm^2 and a homogeneous distribution, a dose of 5 μg/cm^2 is achieved.
After the solvent has evaporated, each test tube is filled with 20-50 cattle tick larvae (Rhipicephalus microplus), closed with a perforated lid and incubated in a horizontal position at 85% relative humidity and 27° C. in an incubator. After 48 hours efficacy is determined. The larvae are patted on the ground of the tubes and negative geotactic behavior is recorded.
An efficacy of 100% means all larvae are dead or moribund; 0% means no larvae are dead or moribund.

Rhipicephalus sanguineus = Rhipicephalus sanguineus in-vitro contact test, adult brown dog ticks (RHIPSA Cont); conditions: 48 h, after 48 hours, read-out: activity (efficacy: 100% means all ticks are dead or moribund); for pest or weed control at 5 µg/cm2, 500 g/ha: application rate 5 μg/cm^2 (=500 g/ha); for pest or weed control at 1 µg/cm2, 100 g/ha: application rate 1 μg/cm^2 (=100 g/ha)
Description: Rhipicephalus sanguineus-In-Vitro Contact Tests with Adult Brown Dog Ticks ([…] Cont) 9 mg compound is solved in 1 mL acetone and diluted with acetone to the desired concentration. 250 μL of the test solution is filled in 25 mL glass test tubes and homogeneously distributed on the inner walls by rotation and tilting on a shaking device (2 h at 30 rpm). […] After 48 hours efficacy is determined. The ticks are patted on the ground of the tubes and are incubated on a heating plate at 45-50° C. for at most 5 minutes. Immotile or uncoordinated moving ticks, which are not able to escape the heat by climbing upwards, are marked as dead or moribund.

Structure (SMILES) | pest or weed control at 32 µg/disc, 100 g/ha (Diabrotica balteata) | mortality at 100 g/ha (Spodoptera frugiperda) | pest or weed control at 0.004 mg (Rhipicephalus microplus [1]) | pest or weed control at 0.02 mg (Rhipicephalus microplus [1]) | pest or weed control at 5 µg/cm2 (Rhipicephalus microplus [2]) | pest or weed control at 160 µg/disc, 500 g/ha (Diabrotica balteata) | mortality at 500 g/ha (Spodoptera frugiperda) | pest or weed control at 5 µg/cm2, 500 g/ha (Rhipicephalus sanguineus) | pest or weed control at 1 µg/cm2, 100 g/ha (Rhipicephalus sanguineus)
CC(NC(=O)c1cc(C(F)(F)F)cc(C(F)(F)F)c1)c1nc(Cl)nn1-c1ccc(C#N)cn1 (racemic) [I-39, 3,5-di(trifluoromethyl)-N-{1-[3-chloro-1-(3-cyano-pyridin-6-yl)-1H-1,2,4-triazol-5-yl]ethyl}-benzamide] | 100% | 100% | 100% | 100% | 100% | – | – | – | –
CC(C)Oc1nc([C@H](C)NC(=O)c2cc(Cl)cc(C(F)(F)F)c2)n(-c2ccc(C#N)cn2)n1 [I-16] | – | – | 100% | 100% | 100% | 100% | 100% | – | –
CC(C)Oc1nc([C@H](C)NC(=O)c2cc(C(F)(F)F)cc(C(F)(F)F)c2)n(-c2ccc(C#N)cn2)n1 [I-17] | 100% | 100% | 100% | 100% | 100% | 100% | 100% | – | –
CC(C)Oc1nc([C@H](C)NC(=O)c2cc(Cl)cc(Cl)c2)n(-c2ccc(C#N)cn2)n1 [I-18] | – | – | – | 100% | 90% | 100% | 83% | – | –
CC(C)c1nc([C@H](C)NC(=O)c2cccc(C(F)(F)F)n2)n(-c2ccc(C#N)cn2)n1 [I-22] | 100% | – | 80% | 100% | – | – | – | – | –
CC(NC(=O)c1cc(Br)cc(C(F)(F)F)c1)c1nc(Cl)nn1-c1ccc(C#N)cn1 (stereo not drawn) [I-40] | 100% | 100% | 100% | 100% | 100% | – | – | 100% | –
C[C@H](NC(=O)c1cc(Cl)cc(SC(F)(F)F)c1)c1nc(C2CC2)nn1-c1ccc(C#N)cn1 [I-45] | 100% | 100% | 100% | – | 100% | – | – | – | –
CC(NC(=O)c1cc(Cl)cc(C(F)(F)F)c1)c1nc(Br)nn1-c1ccc(C#N)cn1 (stereo not drawn) [I-49] | 100% | 100% | – | – | 100% | – | – | – | –
CC(NC(=O)c1cc(Cl)nc(C(F)(F)F)c1)c1nc(Cl)nn1-c1ccc(C#N)cn1 (stereo not drawn) [I-52] | 100% | 100% | – | – | 100% | – | – | – | –
CC(NC(=O)c1cc(Br)cc(Br)c1)c1nc(Br)nn1-c1ccc(C#N)cn1 (stereo not drawn) [I-53] | 100% | 100% | – | – | 100% | – | – | – | –
CC(NC(=O)c1cc(Br)cc(Br)c1)c1nc(Cl)nn1-c1ccc(C#N)cn1 (stereo not drawn) [I-54] | – | 100% | – | – | 100% | – | – | – | –
CC(NC(=O)c1cc(Br)cc(OC(F)(F)F)c1)c1nc(Cl)nn1-c1ccc(C#N)cn1 (stereo not drawn) [I-55] | 100% | 100% | – | – | 80% | – | – | – | –
CC(NC(=O)c1cc(Br)cc(OC(F)(F)F)c1)c1nc(Br)nn1-c1ccc(C#N)cn1 (stereo not drawn) [I-56] | 100% | 100% | – | – | 100% | – | – | – | –
CC(NC(=O)c1cc(Cl)cc(C(F)(F)F)c1)c1nc(Cl)nn1-c1ccc(C#N)cn1 (stereo not drawn) [I-57] | 100% | 100% | – | – | 100% | – | – | – | –
CC(NC(=O)c1cc(Cl)cc(Cl)c1)c1nc(Cl)nn1-c1ccc(C#N)cn1 (stereo not drawn) [I-58] | – | 83% | – | – | 100% | – | – | – | –
CC(NC(=O)c1cncc(C(F)(F)F)c1)c1nc(Cl)nn1-c1ccc(C#N)cn1 (stereo not drawn) [I-59] | – | 100% | 80% | – | 100% | – | – | – | –
CC(NC(=O)c1cc(Cl)cc(OC(F)(F)F)c1)c1nc(Cl)nn1-c1ccc(C#N)cn1 (stereo not drawn) [I-60] | 100% | 83% | – | – | 100% | – | – | – | –
COc1nc([C@H](C)NC(=O)c2cc(F)cc(C#N)c2)n(-c2ccc(C#N)cn2)n1 [I-62] | 100% | – | 100% | – | 90% | – | – | – | –
Cc1nc([C@H](C)NC(=O)c2cccc(Cl)n2)n(-c2ccc(C#N)cn2)n1 [II-51] | – | – | 100% | 100% | 90% | – | – | 100% | 100%
Cc1nc([C@H](C)NC(=O)c2cc(Br)cc(C(F)(F)F)n2)n(-c2ccc(C#N)cn2)n1 [II-55] | – | – | 100% | 100% | 100% | – | – | – | –
Cc1nc([C@H](C)NC(=O)c2ccc(Cl)cn2)n(-c2ccc(C#N)cn2)n1 [II-56] | – | – | 80% | 100% | 80% | – | – | – | –
C[C@H](NC(=O)c1cc(Br)cc(C(F)(F)F)n1)c1ncnn1-c1ccc(C#N)cn1 [II-58] | – | – | – | 0% | – | – | – | – | –
C[C@H](NC(=O)c1cc(Cl)cc(C(F)(F)C(F)(F)F)c1)c1ncnn1-c1nccs1 [II-66] | 100% | – | 100% | 100% | 100% | 100% | 100% | – | –
C[C@H](NC(=O)c1cc(Cl)cc(C(F)(F)C(F)(F)F)c1)c1ncnn1-c1ncc(Br)s1 [II-67] | – | – | 100% | 100% | 100% | 100% | 100% | – | –
C[C@H](NC(=O)c1cc(Cl)cc(C(F)(F)C(F)(F)F)c1)c1ncnn1-c1ncc(Cl)s1 [II-68] | 100% | – | 80% | 100% | 100% | 100% | 83% | 100% | –
CC(C)Oc1cc(Br)cc(C(=O)N[C@@H](C)c2ncnn2-c2ccc(C#N)cn2)c1 [II-108] | 100% | 100% | 80% | – | 90% | – | – | – | 80%
C[C@H](NC(=O)c1cc(Br)cc(Br)c1)c1ncnn1-c1ccc(C#N)cn1 [II- 13] | – | – | – | – | – | 100% | – | – | –
C[C@H](NC(=O)c1cc(Cl)cc(OC(F)(F)F)c1)c1ncnn1-c1cc(NC(=O)c2ccc(F)cc2)ccn1 [II- 20] | – | – | – | – | – | – | 100% | – | –

— US20220274947A1, “NOVEL HETEROARYL-TRIAZOLE COMPOUNDS AS PESTICIDES” (Bayer Aktiengesellschaft, priority 2019, published 2022)
